Data from ChEMBL document CHEMBL1681673, “Anti-tumor pyrimidinylpiperazines bind to the prosurvival Bcl-2 protein family member Bcl-XL” (Bioorg Med Chem Lett, 2011).

Each molecule was assayed on A549 (assay: Growth inhibition of human A549 cells after 24 hrs by SRB assay). Conditions: A549, 24 h.
Format: functional

Compound | GI50
Nc1cccc(CN2CCN(c3ncc(Cc4ccccc4)cn3)CC2)c1 | 75.4 µM
c1ccc(Cc2cnc(N3CCN(Cc4ccccc4)CC3)nc2)cc1 | 49.6 µM
CCc1cnc(N2CCN(Cc3ccccc3Br)CC2)nc1 | 70.9 µM
O=[N+]([O-])c1ccc(Cl)c(CN2CCN(c3ncc(Cc4ccccc4)cn3)CC2)c1 | > 100 µM
CCc1cnc(N2CCN(Cc3cc([N+](=O)[O-])ccc3Cl)CC2)nc1 | 67.2 µM
Oc1cccc(CN2CCN(c3ncc(Cc4ccccc4)cn3)CC2)c1 | 51.1 µM
CCc1cnc(N2CCN(Cc3cccc(N)c3)CC2)nc1 | > 100 µM
CCc1cnc(N2CCN(Cc3ccccc3)CC2)nc1 | > 100 µM
CCc1cnc(N2CCN(Cc3cccc([N+](=O)[O-])c3)CC2)nc1 | 88 µM
O=[N+]([O-])c1cccc(CN2CCN(c3ncc(Cc4ccccc4)cn3)CC2)c1 | 61.2 µM
CCc1cnc(N2CCN(Cc3cc(F)ccc3Br)CC2)nc1 | > 100 µM
CCc1cnc(N2CCN(Cc3cccc(O)c3)CC2)nc1 | > 100 µM
CCc1cnc(N2CCN(Cc3cc(N)ccc3Cl)CC2)nc1 | 62.9 µM
CCc1cnc(N2CCN(Cc3cc(O)ccc3Br)CC2)nc1 | 57.6 µM

Now from value to molecule:

GI50 | Compound
> 100 µM | Fc1ccc(Br)c(CN2CCN(c3ncc(Cc4ccccc4)cn3)CC2)c1
9.91 µM | Fc1ccc(-c2cn[nH]c2)c(CN2CCN(c3ncc(Cc4ccccc4)cn3)CC2)c1
49.2 µM | CCc1cnc(N2CCN(Cc3cc(F)ccc3-c3cn[nH]c3)CC2)nc1
86.5 µM | Brc1ccccc1CN1CCN(c2ncc(Cc3ccccc3)cn2)CC1
15.1 µM | Nc1ccc(Cl)c(CN2CCN(c3ncc(Cc4ccccc4)cn3)CC2)c1
51.4 µM | CCc1cnc(N2CCN(Cc3ccccc3-c3cn[nH]c3)CC2)nc1
23.7 µM | Oc1ccc(Br)c(CN2CCN(c3ncc(Cc4ccccc4)cn3)CC2)c1
8.43 µM | c1ccc(Cc2cnc(N3CCN(Cc4ccccc4-c4cn[nH]c4)CC3)nc2)cc1

Each molecule was assayed against Bcl-2-like protein 1 (Homo sapiens, UniProt Q07817) (assay: Binding affinity to Bcl-xL after 2 hrs by fluorescein-labeled Bak-BH3 peptide competition binding assay). Conditions: not given.
Sequence of Bcl-2-like protein 1 (Q07817 whole entry): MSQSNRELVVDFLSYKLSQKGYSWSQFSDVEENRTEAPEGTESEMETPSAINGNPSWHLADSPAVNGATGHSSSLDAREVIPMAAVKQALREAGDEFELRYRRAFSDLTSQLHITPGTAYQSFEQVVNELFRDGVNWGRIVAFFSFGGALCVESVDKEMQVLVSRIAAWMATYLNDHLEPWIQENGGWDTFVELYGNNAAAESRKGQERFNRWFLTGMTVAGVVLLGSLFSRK

Ki | Compound
0.52 µM | Oc1cccc(CN2CCN(c3ncc(Cc4ccccc4)cn3)CC2)c1
0.17 µM | Nc1ccc(Cl)c(CN2CCN(c3ncc(Cc4ccccc4)cn3)CC2)c1
0.127 µM | c1ccc(Cc2cnc(N3CCN(Cc4ccccc4-c4cn[nH]c4)CC3)nc2)cc1
